Reference: patent publication US20250376473A1, “PRMTS INHIBITOR AND USE THEREOF” (Cytosinlab Therapeutics Co., Ltd., priority 2022, published 2025)
Read-outs that look alike come from different tables or passages of the source.

Tests used:
HCT116 MTAP WT cells = assay: Proliferation inhibition of HCT116 cells in vitro (CellTiter Glo); assay type: cell-based; conditions: 6 days, 9 concentrations starting from 30 μM, read-out: Cell proliferation inhibition rate HCT116 MTAP WT IC50 (nm)
How it was run: (§1)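 HCT116 (MTAP WT) or CRISPR MTAP-knockout HCT116 cells (100 per well) were exposed for 6 days at 37 °C to 9-point, 3-fold dilutions starting at 30 μM (WT) or 3 μM (KO), with 0.4% DMSO final. Viability was read by CellTiter-Glo luminescence, and IC50 came from a four-parameter fit.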

[1] = test system: HCT116-MTAP-KO cells (HCT116 MTAP null); assay: Proliferation inhibition of HCT116 MTAP-KO cells in vitro (CellTiter Glo); assay type: cell-based; conditions: 6 days, 9 concentrations starting from 3 μM, read-out: Cell proliferation inhibition rate HCT116 MTAP null IC50 (nm)
How it was run: as §1

IC50 (HCT116 MTAP WT cells; Homo sapiens, HCT-116, 144 h) [µM] | IC50 ([1]; HCT116-MTAP null, 144 h) [µM] | IC50 (HCT116 MTAP WT cells) [µM] | IC50 [1] [µM] | Structure (SMILES)
1 to 10 | 0.1 to 1 | – | – | Cc1ncc2c(N)nc3cc(F)c(C(=O)N(Cc4cn5ccc(C(F)(F)F)cc5n4)c4cnn(C)c4)cc3n12 [Example 70]
1 to 10 | < 0.1 | – | – | Cc1ncn2c1c(N)nc1ccc(C(=O)N(Cc3nc(-c4ccccn4)cs3)CC(C)C)cc12 [Example 307]
1 to 10 | < 0.1 | – | – | Cc1cn(C)nc1N(Cc1ccc(C(F)(F)F)cn1)C(=O)c1cc2c(cc1F)nc(N)c1cnc(C)n12 [Example 179]
0.1 to 1 | < 0.1 | – | – | Cc1ncc2c(N)nc3cc(F)c(C(=O)N(Cc4ccc(S(F)(F)(F)(F)F)cc4)c4ccnn4C)cc3n12 [Example 229]
– | – | 1 to 10 | < 0.1 | Cc1ncc2c(N)nc3cc(F)c(C(=O)N(Cc4cnn(C(F)(F)F)c4)c4ccnn4C)cc3n12 [Example 213]
1 to 10 | 0.1 to 1 | – | – | COCCOc1ccc(CN(C(=O)c2cc3c(cc2F)nc(N)c2cnc(C)n23)c2cn(C)nc2C)nc1 [Example 152]
1 to 10 | < 0.1 | – | – | Cc1ncc2c(N)nc3cc(F)c(C(=O)N(Cc4cccc(C(F)(F)F)n4)c4ccnn4C)cc3n12 [Example 326]
